Source: patent US8258115B2, “Stable salts of S-adenosylmethionine and process for the preparation thereof” (priority 2007, dated 2012)

Experiments:
Assay type in all cases: physicochemical
[1] = Degradation of the active stereoisomer S,S at 40° C. and 75% R.H.
Method: (§1) In the following Tables 14-25, the percentage values are reported of the degradation of the active stereoisomer S,S calculated at 40° C. and 75% R.H. (Tables 14-19) and at 25° C. and 65% R.H.

[2] = Moisture % K.F. of the stability samples; conditions: sample used in the stability test
Method: In the following Tables 2-13, the percentage values are repotted which were obtained in the stability tests carried out on the products of examples 1-6. The stability tests were carried out in thermostated heaters at 40° C. and 75% R.H (tables 2-7) as well as 25° C. and 60% R.H. (tables 8-13), preserving the samples in heat-sealed aluminium/aluminium bags according to the following criteria: […]

[3] = Degradation of the active stereoisomer S,S at 25° C. and 65% R.H.
Method: as §1

[4] = Stability test in thermostated heaters at 25° C. and 60% R.H., active ingredient %; conditions: heat-sealed aluminium/aluminium bags
Method: (§2) In the following Tables 2-13, the percentage values are repotted which were obtained in the stability tests carried out on the products of examples 1-6. The stability tests were carried out in thermostated heaters at 40° C. and 75% R.H (tables 2-7) as well as 25° C. and 60% R.H. (tables 8-13), preserving the samples in heat-sealed aluminium/aluminium bags according to the following criteria: the active ingredient % was determined for every sampling point taken under consideration.

[5] = Stability test in thermostated heaters at 40° C. and 75% R.H., active ingredient %; conditions: heat-sealed aluminium/aluminium bags
Method: as §2

SMILES | percentage of active S,S stereoisomer remaining ([1]; 30 days) [%] | percentage of active S,S stereoisomer remaining ([1]; 60 days) [%] | percentage of active S,S stereoisomer remaining ([1]; 90 days) [%] | percentage of active S,S stereoisomer remaining ([1]; 120 days) [%] | percentage of active S,S stereoisomer remaining ([1]; 180 days) [%] | percentage of active S,S stereoisomer remaining ([1]; T = 0) [%] | Moisture % K.F. [2] [%] | percentage of the active S,S stereoisomer remaining ([3]; 30 days) [%] | percentage of the active S,S stereoisomer remaining ([3]; 90 days) [%] | percentage of the active S,S stereoisomer remaining ([3]; 180 days) [%] | percentage of the active S,S stereoisomer remaining ([3]; 360 days) [%] | percentage of the active S,S stereoisomer remaining ([3]; 720 days) [%] | percentage of the active S,S stereoisomer remaining ([3]; T = 0) [%] | stability test percentage value (active ingredient %), 30 days [4] [%] | stability test percentage value (active ingredient %), 90 days [4] [%] | stability test percentage value (active ingredient %), 180 days [4] [%] | stability test percentage value (active ingredient %), 360 days [4] [%] | stability test percentage value (active ingredient %), 720 days [4] [%] | stability test percentage value (active ingredient %), 30 days [5] [%] | stability test percentage value (active ingredient %), 60 days [5] [%] | further results
C[S+](CCC(N)C(=O)[O-])C[C@H]1O[C@@H](n2cnc3c(N)ncnc32)[C@H](O)[C@@H]1O.C[S+](CCC(N)C(=O)[O-])C[C@H]1O[C@@H](n2cnc3c(N)ncnc32)[C@H](O)[C@@H]1O.O=S(=O)(O)O.[Ca+2].[Cl-].[Cl-] (some centres unmarked) [SAMe•0.5H2SO4•0.5CaCl2] | 89.8 | 86.8 | 83.6 | 80.6 | 77.6 | 98.2 | 0.23 | 97.8 | 96.7 | 93.6 | 90.8 | 88.6 | 98.2 | 0.23 | 0.35 | 0.57 | 0.78 | 0.99 | 0.48 | 0.76 | stability test percentage value (active ingredient %), 90 days [5]: 1.48%; stability test percentage value (active ingredient %), 120 days [5]: 1.98%; stability test percentage value (active ingredient %), 180 days [5]: 3.99%
C[S+](CCC(N)C(=O)[O-])C[C@H]1O[C@@H](n2cnc3c(N)ncnc32)[C@H](O)[C@@H]1O.C[S+](CCC(N)C(=O)[O-])C[C@H]1O[C@@H](n2cnc3c(N)ncnc32)[C@H](O)[C@@H]1O.O=S(=O)(O)O.O=S(=O)([O-])[O-].[Mg+2] (some centres unmarked) [SAMe•0.5H2SO4•0.5Mg2SO4•0.4H2O] | 90.8 | 88.8 | 85.6 | 82.6 | 78.6 | 98.2 | 0.57 | 97.8 | 96.8 | 95.6 | 92.6 | 88.6 | 98.2 | 0.23 | 0.45 | 0.65 | 0.87 | 0.99 | 0.57 | 0.65 | stability test percentage value (active ingredient %), 90 days [5]: 0.96%; stability test percentage value (active ingredient %), 120 days [5]: 1.40%; stability test percentage value (active ingredient %), 180 days [5]: 2.18%
C[S+](CCC(N)C(=O)[O-])C[C@H]1O[C@@H](n2cnc3c(N)ncnc32)[C@H](O)[C@@H]1O.C[S+](CCC(N)C(=O)[O-])C[C@H]1O[C@@H](n2cnc3c(N)ncnc32)[C@H](O)[C@@H]1O.O=S(=O)(O)O.[Cl-].[Cl-].[Mg+2] (some centres unmarked) [SAMe•0.5H2SO4•0.5MgCl2] | 89.8 | 86.8 | 83.6 | 80.6 | 77.6 | 98.2 | 0.61 | 97.8 | 96.8 | 93.6 | 90.6 | 87.6 | 98.2 | 0.12 | 0.25 | 0.35 | 0.57 | 0.79 | 0.36 | 0.70 | stability test percentage value (active ingredient %), 90 days [5]: 1.16%; stability test percentage value (active ingredient %), 120 days [5]: 1.66%; stability test percentage value (active ingredient %), 180 days [5]: 2.45%
C[S+](CCC(N)C(=O)[O-])C[C@H]1O[C@@H](n2cnc3c(N)ncnc32)[C@H](O)[C@@H]1O.C[S+](CCC(N)C(=O)[O-])C[C@H]1O[C@@H](n2cnc3c(N)ncnc32)[C@H](O)[C@@H]1O.Cl.[Cl-].[Cl-].[Mg+2] (some centres unmarked) [SAMe•0.5HCl•0.5MgCl2] | 92.5 | 89.8 | 84.5 | 82.6 | 76.6 | 98.9 | 0.54 | 96.5 | 94.8 | 93.7 | 92.6 | 89.5 | 98.9 | 0.35 | 0.43 | 0.76 | 0.90 | 1.07 | 0.56 | 0.87 | stability test percentage value (active ingredient %), 90 days [5]: 1.45%; stability test percentage value (active ingredient %), 120 days [5]: 1.99%; stability test percentage value (active ingredient %), 180 days [5]: 2.67%
